Measurements published in the supplement of paper PMC6045584.
± gives the standard deviation of the averaged measurements.

Key:
VINORELBINE = compound: CCC1=C[C@@H]2CN(C1)Cc1c([nH]c3ccccc13)[C@@](C(=O)OC)(c1cc3c(cc1OC)N(C)[C@H]1[C@@](O)(C(=O)OC)[C@H](OC(C)=O)[C@]4(CC)C=CCN5CC[C@]31[C@@H]54)C2 [VINORELBINE]; test: surviving fraction relative to DMSO-only wells; higher = less growth inhibition; settings: exposure time: 5 days
Procedure, shortened: (§1)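 Tumour cell lines in log phase were plated in 384-well plates at 250–500 cells per well, then, after 24 hours, exposed continuously for five days to inhibitors at 0.5, 1, 5, 10, 50, 100, 500 and 1000 nM. Viability came from CellTiter-Glo luminescence, and surviving fraction is that signal normalised to the median of DMSO-only wells. Plates were read after 10 minutes at room temperature, and each line, screened three times, was kept only when replicate Pearson r was >0.7 and median Z' was >0.3.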

SUNITINIB = compound: CCN(CC)CCNC(=O)c1c(C)[nH]c(/C=C2\C(=O)Nc3ccc(F)cc32)c1C [SUNITINIB]; test: as above; settings: exposure time: 5 days
Procedure, shortened: as §1

| Test System | surviving fraction (VINORELBINE; 0.5 nM) | surviving fraction (VINORELBINE; 1 nM) | surviving fraction (VINORELBINE; 5 nM) | surviving fraction (VINORELBINE; 10 nM) | surviving fraction (VINORELBINE; 50 nM) | surviving fraction (VINORELBINE; 100 nM) | surviving fraction (VINORELBINE; 500 nM) | surviving fraction (VINORELBINE; 1000 nM) | surviving fraction (SUNITINIB; 0.5 nM) | surviving fraction (SUNITINIB; 1 nM) | surviving fraction (SUNITINIB; 5 nM) | surviving fraction (SUNITINIB; 10 nM) | surviving fraction (SUNITINIB; 50 nM) | surviving fraction (SUNITINIB; 100 nM) | surviving fraction (SUNITINIB; 500 nM) | surviving fraction (SUNITINIB; 1000 nM) |
| --- | --- | --- | --- | --- | --- | --- | --- | --- | --- | --- | --- | --- | --- | --- | --- | --- |
| HCC1954 BREAST | 1.08 ± 0.15 | 0.9287 ± 0.0046 | 0.576 ± 0.01 | 0.311 ± 0.011 | 0.1412 ± 0.0011 | 0.13 ± 0.00071 | 0.091 ± 0.0021 | 0.144 ± 0.025 | 0.363 ± 0.098 | 0.365 ± 0.15 | 0.38 ± 0.16 | 0.434 ± 0.2 | 0.5 ± 0.045 | 0.555 ± 0.052 | 0.616 ± 0.092 | 0.65 ± 0.0088 |
| HCT15 LARGE INTESTINE | 1.1 ± 0.066 | 1.06 ± 0.043 | 1.04 ± 0.085 | 0.957 ± 0.058 | 0.99 ± 0.064 | 0.819 ± 0.093 | 0.183 ± 0.026 | 0.106 ± 0.0059 | 0.882 ± 0.015 | 0.73 ± 0.028 | 0.816 ± 0.034 | 0.449 ± 0.021 | 0.952 ± 0.049 |  | 0.855 ± 0.08 | 0.119 ± 0.015 |
| HELA CERVIX | 1.05 ± 0.054 | 1.02 ± 0.044 | 1.04 ± 0.015 | 0.778 ± 0.043 | 0.145 ± 0.0031 | 0.0838 ± 0.0042 | 0.0347 ± 0.0015 | 0.0298 ± 0.0028 | 0.906 ± 0.047 | 0.892 ± 0.046 |  | 0.853 ± 0.069 | 0.995 ± 0.044 | 0.948 ± 0.052 | 1.03 ± 0.035 | 0.745 ± 0.05 |
| HMLE3 BREAST | 0.993 ± 0.017 | 0.965 ± 0.053 | 1.07 ± 0.044 | 0.987 ± 0.013 | 0.125 ± 0.029 | 0.053 ± 0.012 | 0.0317 ± 0.0067 | 0.0373 ± 0.005 | 0.887 ± 0.037 | 0.715 ± 0.058 | 0.816 ± 0.019 | 0.241 ± 0.053 | 0.867 ± 0.064 | 0.832 ± 0.061 | 0.498 ± 0.018 | 0.108 ± 0.0078 |
| HMT3552 BREAST | 1.05 | 1.05 | 0.59 | 0.209 | 0.104 | 0.117 | 0.253 | 0.221 |  | 0.96 |  |  |  | 1.21 | 0.423 | 0.203 |
| HOS BONE | 1.05 ± 0.05 | 1.01 ± 0.011 | 1.05 ± 0.034 | 0.967 ± 0.031 | 0.13 ± 0.012 | 0.0783 ± 0.0015 | 0.03 ± 0.0035 | 0.033 ± 0.0027 | 0.921 ± 0.015 | 0.937 ± 0.025 | 0.8943 ± 0.0061 | 0.884 ± 0.021 | 0.954 ± 0.01 | 0.9297 ± 0.009 | 0.786 ± 0.017 | 0.471 ± 0.0095 |
| HOSMNG BONE | 0.938 ± 0.14 | 0.956 ± 0.1 | 0.963 ± 0.11 | 0.955 ± 0.15 | 0.694 ± 0.1 | 0.415 ± 0.028 | 0.112 ± 0.018 | 0.0593 ± 0.01 | 0.939 ± 0.1 |  | 0.969 ± 0.13 |  | 1.06 ± 0.12 | 0.999 ± 0.18 | 0.803 ± 0.072 | 0.44 ± 0.037 |
| HS57T BREAST | 1.01 ± 0.08 | 0.957 ± 0.03 | 0.682 ± 0.0066 | 0.118 ± 0.011 | 0.07 ± 0.002 | 0.0703 ± 0.013 | 0.0633 ± 0.0096 | 0.0723 ± 0.0084 | 0.9 ± 0.077 | 0.867 ± 0.027 |  | 0.919 ± 0.095 |  | 0.863 ± 0.011 | 0.572 ± 0.035 | 0.406 ± 0.027 |
| HS578T BREAST | 1.13 ± 0.09 | 0.976 ± 0.17 | 0.423 ± 0.021 | 0.276 ± 0.027 | 0.153 ± 0.019 | 0.138 ± 0.004 | 0.173 ± 0.011 | 0.185 ± 0.014 | 0.838 ± 0.15 | 0.824 ± 0.057 |  | 0.881 ± 0.049 |  |  | 0.871 ± 0.073 | 0.426 ± 0.054 |
| HSSYII SYNOVIAL | 0.891 ± 0.082 | 0.836 ± 0.032 | 0.308 ± 0.033 | 0.0998 ± 0.006 | 0.0498 ± 0.003 | 0.0455 ± 0.0052 | 0.0458 ± 0.002 | 0.0588 ± 0.0063 | 0.771 ± 0.076 | 0.694 ± 0.029 | 0.755 ± 0.012 | 0.216 ± 0.01 |  | 0.765 ± 0.045 | 0.418 ± 0.02 | 0.114 ± 0.0013 |
| HT1080 SOFT TISSUE | 1.02 ± 0.02 | 1.02 ± 0.016 | 0.903 ± 0.018 | 0.503 ± 0.01 | 0.0517 ± 0.0055 | 0.0363 ± 0.00058 | 0.038 ± 0.002 | 0.0363 ± 0.0015 | 0.9787 ± 0.0091 |  | 0.997 ± 0.021 | 0.97 ± 0.07 |  | 1.1 ± 0.031 | 0.766 ± 0.032 | 0.559 ± 0.032 |
| HU09 BONE | 1.09 ± 0.035 | 1.02 ± 0.11 | 0.981 ± 0.1 | 0.558 ± 0.071 | 0.124 ± 0.015 | 0.0583 ± 0.0064 | 0.0547 ± 0.004 | 0.0747 ± 0.0045 | 0.865 ± 0.14 |  | 0.768 ± 0.076 | 0.637 ± 0.048 | 0.498 ± 0.051 | 0.485 ± 0.073 | 0.288 ± 0.035 | 0.161 ± 0.011 |
| JIMT1 BREAST | 0.955 ± 0.036 | 0.9598 ± 0.0091 | 0.512 ± 0.025 | 0.304 ± 0.03 | 0.127 ± 0.011 | 0.117 ± 0.0056 | 0.113 ± 0.0063 | 0.11 ± 0.0053 | 0.826 ± 0.025 | 0.81 ± 0.07 | 0.841 ± 0.041 | 0.848 ± 0.069 | 1.05 ± 0.056 | 1.04 ± 0.075 | 0.776 ± 0.098 | 0.54 ± 0.063 |
| JURKAT HAEMATOPOIETIC AND LYMPHOID TISSUE | 1.07 ± 0.02 | 1.066 ± 0.0099 | 0.952 ± 0.041 | 0.168 ± 0.034 | 0.0297 ± 0.00058 | 0.0247 ± 0.00058 | 0.025 | 0.0233 ± 0.00058 | 1.03 ± 0.023 | 1 ± 0.015 | 1.009 ± 0.0064 | 1.01 ± 0.025 | 1.01 ± 0.026 | 1.04 ± 0.012 | 0.677 ± 0.012 | 0.0883 ± 0.0087 |
| KPD BONE | 0.953 ± 0.04 | 0.915 ± 0.055 | 0.96 ± 0.087 | 0.839 ± 0.093 | 0.5 ± 0.011 | 0.457 ± 0.035 | 0.445 ± 0.011 | 0.383 ± 0.026 | 0.898 ± 0.04 | 0.875 ± 0.031 | 0.928 ± 0.042 |  | 0.9567 ± 0.007 | 0.972 ± 0.022 | 0.73 ± 0.031 | 0.441 ± 0.046 |
| LM7 BONE | 0.973 ± 0.062 | 0.9683 ± 0.0047 | 0.757 ± 0.023 | 0.499 ± 0.062 | 0.115 ± 0.0052 | 0.105 ± 0.0081 | 0.0943 ± 0.011 | 0.122 ± 0.013 | 0.786 ± 0.068 | 0.767 ± 0.028 | 0.81 ± 0.087 | 0.731 ± 0.05 | 0.93 ± 0.039 | 0.794 ± 0.016 | 0.342 ± 0.009 | 0.177 ± 0.018 |
| MCF7 BREAST | 0.932 ± 0.027 | 0.914 ± 0.025 | 0.861 ± 0.058 | 0.817 ± 0.022 | 0.466 ± 0.017 | 0.428 ± 0.027 | 0.357 ± 0.0083 | 0.221 ± 0.018 | 0.786 ± 0.02 | 0.822 ± 0.023 | 0.8113 ± 0.0079 | 0.706 ± 0.0095 |  | 0.842 ± 0.015 | 0.751 ± 0.012 | 0.607 ± 0.015 |
| MDAMB134 BREAST | 0.97 ± 0.1 | 0.842 ± 0.025 | 0.751 ± 0.072 | 0.691 ± 0.082 | 0.728 ± 0.016 | 0.708 ± 0.05 | 0.69 ± 0.085 | 0.767 ± 0.091 | 0.675 ± 0.021 | 0.777 ± 0.087 | 0.715 ± 0.14 | 0.675 ± 0.022 | 0.887 ± 0.067 |  | 1.05 ± 0.22 |  |
| MDAMB157 BREAST | 0.915 ± 0.076 | 0.872 ± 0.076 | 0.748 ± 0.084 | 0.465 ± 0.045 | 0.11 ± 0.026 | 0.0867 ± 0.013 | 0.0783 ± 0.015 | 0.12 ± 0.025 | 0.794 ± 0.024 | 0.802 ± 0.08 | 0.87 ± 0.07 | 0.869 ± 0.12 | 0.83 ± 0.032 | 0.74 ± 0.072 | 0.613 ± 0.064 | 0.404 ± 0.062 |
| MDAMB231 BREAST | 0.976 ± 0.035 | 0.998 ± 0.02 | 0.904 ± 0.027 | 0.681 ± 0.027 | 0.238 ± 0.008 | 0.244 ± 0.0099 | 0.189 ± 0.0019 | 0.172 ± 0.009 | 0.955 ± 0.016 | 0.9679 ± 0.0028 | 0.979 ± 0.012 | 0.976 ± 0.033 | 1.09 ± 0.017 | 1.12 ± 0.017 | 1.04 ± 0.0064 | 0.848 ± 0.011 |
| MDAMB361 BREAST | 0.791 ± 0.062 | 0.786 ± 0.076 | 0.695 ± 0.056 | 0.603 ± 0.016 | 0.607 ± 0.03 | 0.566 ± 0.04 | 0.5787 ± 0.0021 | 0.502 ± 0.058 | 0.683 ± 0.049 | 0.717 ± 0.023 | 0.696 ± 0.058 | 0.651 ± 0.025 | 0.82 ± 0.069 |  | 0.8 ± 0.011 | 0.527 ± 0.054 |
| MDAMB436 BREAST | 0.9 ± 0.064 | 0.88 ± 0.045 | 0.796 ± 0.12 | 0.742 ± 0.038 | 0.591 ± 0.032 | 0.51 ± 0.033 | 0.211 ± 0.013 | 0.221 ± 0.018 | 0.761 ± 0.07 | 0.78 ± 0.046 | 0.79 ± 0.011 | 0.79 ± 0.099 | 0.85 ± 0.087 | 0.913 ± 0.071 | 0.718 ± 0.061 | 0.596 ± 0.023 |
